Experimental data published in US20060110451A1, “Formulations of [1,4]diazepino[6,7,1-IJ]quinoline derivatives” (priority 2004, published 2006).
Read-outs that look alike come from different tables or passages of the source.

Legend:
[1] = Ascending multiple dose pharmacokinetics of enteric coated capsules in schizophrenic patients; type: in vivo, human; details: for Tmax / half-life / AUC(0-t) / Cmax / AUC(0-inf): plasma
Method: Ascending multiple doses of 100, 150, and 250 mg Compound A.HCl were administered as twice-daily regimen (q12h) for 10 days in cohorts of 8 schizophrenic patients (6 active and 2 placebo). Blood samples for Compound A.HCl analysis were obtained on day 1 within 2 hours of test article administration and at various time points from 0.5 to 24 hours after test article administration. On day 10, blood samples were collected up to 12 hours after dose administration. Doses were administered orally after an overnight fast of at least 10 hours on these 2 days. Trough PK samples were collected on days 6, 8, and 9 to assess whether steady-state has been reached.
FIGS. 7A and 7B show the relationship between Cmax vs. dose and AUC vs. dose, respectively.

[2] = Single ascending dose study; type: in vivo; details: single oral doses of 500 mg
[3] = target: T1, 5-HT2C (Homo sapiens, UniProt P28335); details: cited from earlier work
T1 sequence (P28335 33-458): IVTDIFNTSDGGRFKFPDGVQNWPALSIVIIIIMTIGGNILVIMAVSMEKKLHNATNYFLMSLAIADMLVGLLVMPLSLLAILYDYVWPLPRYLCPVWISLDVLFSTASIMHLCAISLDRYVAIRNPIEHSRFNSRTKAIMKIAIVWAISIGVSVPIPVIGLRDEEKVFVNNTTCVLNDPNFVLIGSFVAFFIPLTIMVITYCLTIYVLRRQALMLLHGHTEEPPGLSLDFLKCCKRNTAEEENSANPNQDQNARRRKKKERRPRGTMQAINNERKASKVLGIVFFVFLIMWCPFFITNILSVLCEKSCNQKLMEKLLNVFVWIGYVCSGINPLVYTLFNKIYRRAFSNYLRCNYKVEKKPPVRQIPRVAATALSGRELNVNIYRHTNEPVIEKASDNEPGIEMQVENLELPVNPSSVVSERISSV

Cl.c1cc2c3c(c1)[C@H]1CCC[C@H]1CN3CCNC2 [Compound A.HCl, (9aR,12aS)-4,5,6,7,9,9a,10,11,12,12a-decahydrocyclopenta[c][1,4]diazepino[6,7,1-ij]quinoline hydrochloride]
relationship between dose and exposure ([1]; after excluding 2 outlier patients): approximately linear
difference in Tmax or t1/2 ([1]; at the 250 mg q12h dose level): no significant difference
differences in pharmacokinetics between healthy subjects and schizophrenic patients ([1]; human, in vivo): No significant differences
Tmax ([1]; human, oral, schizophrenic patients, single and multiple dose administration, enteric-coated formulation, read-out: mean Tmax): 4 to 5 h
half-life ([1]; human, oral, schizophrenic patients, single dose administration, read-out: mean elimination t1/2): 8 to 10 h
AUC(0-t) ([1]; human, po, 100 mg, Schizophrenia patients, multiple oral doses (q12 h) 100 mg, day 10, read-out: AUCss (AUC0-12) (Geom. Mean)): 31.2 ng·h/mL
AUC(0-t) ([1]; human, po, 100 mg, Schizophrenia patients, multiple oral doses (q12 h) 100 mg, day 10, read-out: AUCss (AUC0-12) (Mean)): ~33.2 ng·h/mL
Cmax ([1]; human, po, 100 mg, Schizophrenia patients, multiple oral doses (q12 h) 100 mg, day 10, read-out: Cmax (Geom. Mean)): 3.82 ng/mL
Cmax ([1]; human, po, 100 mg, Schizophrenia patients, multiple oral doses (q12 h) 100 mg, day 10, read-out: Cmax (Mean)): 4 ng/mL
Tmax ([1]; human, po, 100 mg, Schizophrenia patients, multiple oral doses (q12 h) 100 mg, day 10, read-out: Tmax (Geom. Mean)): 4.6 h
Tmax ([1]; human, po, 100 mg, Schizophrenia patients, multiple oral doses (q12 h) 100 mg, day 10, read-out: Tmax (Mean)): 4.8 h
AUC(0-inf) ([1]; human, po, 100 mg, Schizophrenia patients, single oral dose 100 mg, day 1, read-out: AUC0-∞ (Geom. Mean)): 27.1 ng·h/mL
AUC(0-inf) ([1]; human, po, 100 mg, Schizophrenia patients, single oral dose 100 mg, day 1, read-out: AUC0-∞ (Mean)): 30.6 ng·h/mL
Cmax ([1]; human, po, 100 mg, Schizophrenia patients, single oral dose 100 mg, day 1, read-out: Cmax (Geom. Mean)): 2.07 ng/mL
Cmax ([1]; human, po, 100 mg, Schizophrenia patients, single oral dose 100 mg, day 1, read-out: Cmax (Mean)): 2.21 ng/mL
Tmax ([1]; human, po, 100 mg, Schizophrenia patients, single oral dose 100 mg, day 1, read-out: Tmax (Geom. Mean)): 4.7 h
Tmax ([1]; human, po, 100 mg, Schizophrenia patients, single oral dose 100 mg, day 1, read-out: Tmax (Mean)): 4.8 h
half-life ([1]; human, po, 100 mg, Schizophrenia patients, single oral dose 100 mg, day 1, read-out: t1/2 (Geom. Mean) (converted)): 8.67 h
half-life ([1]; human, po, 100 mg, Schizophrenia patients, single oral dose 100 mg, day 1, read-out: t1/2 (Mean) (converted)): 8.93 h
AUC(0-t) ([1]; human, po, 150 mg, Schizophrenia patients, multiple oral doses (q12 h) 150 mg, day 10, read-out: AUCss (AUC0-12) (Geom. Mean)): 51.3 ng·h/mL
AUC(0-t) ([1]; human, po, 150 mg, Schizophrenia patients, multiple oral doses (q12 h) 150 mg, day 10, read-out: AUCss (AUC0-12) (Mean)): ~54.9 ng·h/mL
Cmax ([1]; human, po, 150 mg, Schizophrenia patients, multiple oral doses (q12 h) 150 mg, day 10, read-out: Cmax (Geom. Mean)): 6.67 ng/mL
Cmax ([1]; human, po, 150 mg, Schizophrenia patients, multiple oral doses (q12 h) 150 mg, day 10, read-out: Cmax (Mean)): 7.21 ng/mL
Tmax ([1]; human, po, 150 mg, Schizophrenia patients, multiple oral doses (q12 h) 150 mg, day 10, read-out: Tmax (Geom. Mean)): 4.2 h
Tmax ([1]; human, po, 150 mg, Schizophrenia patients, multiple oral doses (q12 h) 150 mg, day 10, read-out: Tmax (Mean)): 4.3 h
AUC(0-inf) ([1]; human, po, 150 mg, Schizophrenia patients, single oral dose 150 mg, day 1, read-out: AUC0-∞ (Geom. Mean)): 34 ng·h/mL
AUC(0-inf) ([1]; human, po, 150 mg, Schizophrenia patients, single oral dose 150 mg, day 1, read-out: AUC0-∞ (Mean)): 35.6 ng·h/mL
Cmax ([1]; human, po, 150 mg, Schizophrenia patients, single oral dose 150 mg, day 1, read-out: Cmax (Geom. Mean)): 3.09 ng/mL
Cmax ([1]; human, po, 150 mg, Schizophrenia patients, single oral dose 150 mg, day 1, read-out: Cmax (Mean)): 3.37 ng/mL
Tmax ([1]; human, po, 150 mg, Schizophrenia patients, single oral dose 150 mg, day 1, read-out: Tmax (Geom. Mean)): 4.2 h
Tmax ([1]; human, po, 150 mg, Schizophrenia patients, single oral dose 150 mg, day 1, read-out: Tmax (Mean)): 4.6 h
half-life ([1]; human, po, 150 mg, Schizophrenia patients, single oral dose 150 mg, day 1, read-out: t1/2 (Geom. Mean) (converted)): 9.25 h
half-life ([1]; human, po, 150 mg, Schizophrenia patients, single oral dose 150 mg, day 1, read-out: t1/2 (Mean) (converted)): 9.49 h
AUC(0-t) ([1]; human, po, 250 mg, Schizophrenia patients, multiple oral doses (q12 h) 250 mg, day 10, read-out: AUCss (AUC0-12) (Geom. Mean)): 134 ng·h/mL
AUC(0-t) ([1]; human, po, 250 mg, Schizophrenia patients, multiple oral doses (q12 h) 250 mg, day 10, read-out: AUCss (AUC0-12) (Mean)): ~173 ng·h/mL
Cmax ([1]; human, po, 250 mg, Schizophrenia patients, multiple oral doses (q12 h) 250 mg, day 10, read-out: Cmax (Geom. Mean)): 15.9 ng/mL
Cmax ([1]; human, po, 250 mg, Schizophrenia patients, multiple oral doses (q12 h) 250 mg, day 10, read-out: Cmax (Mean)): 20.6 ng/mL
Tmax ([1]; human, po, 250 mg, Schizophrenia patients, multiple oral doses (q12 h) 250 mg, day 10, read-out: Tmax (Mean)): 4.8 h
AUC(0-inf) ([1]; human, po, 250 mg, Schizophrenia patients, single oral dose 250 mg, day 1, read-out: AUC0-∞ (Geom. Mean)): 76.1 ng·h/mL
AUC(0-inf) ([1]; human, po, 250 mg, Schizophrenia patients, single oral dose 250 mg, day 1, read-out: AUC0-∞ (Mean)): 109 ng·h/mL
Cmax ([1]; human, po, 250 mg, Schizophrenia patients, single oral dose 250 mg, day 1, read-out: Cmax (Geom. Mean)): 5.71 ng/mL
Cmax ([1]; human, po, 250 mg, Schizophrenia patients, single oral dose 250 mg, day 1, read-out: Cmax (Mean)): 8.89 ng/mL
Tmax ([1]; human, po, 250 mg, Schizophrenia patients, single oral dose 250 mg, day 1, read-out: Tmax (Geom. Mean)): 4.7 h
Tmax ([1]; human, po, 250 mg, Schizophrenia patients, single oral dose 250 mg, day 1, read-out: Tmax (Mean)): 5 h
half-life ([1]; human, po, 250 mg, Schizophrenia patients, single oral dose 250 mg, day 1, read-out: t1/2 (Geom. Mean) (converted)): 7.74 h
half-life ([1]; human, po, 250 mg, Schizophrenia patients, single oral dose 250 mg, day 1, read-out: t1/2 (Mean) (converted)): 8.04 h
dose proportionality of exposure [2]: signs of nonlinearity
5-HT2C agonist activity [3]: potent 5-HT2C agonist
